Results from article PMC5467912, “Asymmetric regulation of quorum-sensing receptors drives autoinducer-specific gene expression programs in Vibrio cholerae” (PLoS Genetics, 2017).
Values joined by “and” are separate entries in the source; they are usually repeats but may differ in a detail not shown here. Equal entries are not always repeated. Where two headings read alike, the source gives them in different places.

How the values were obtained:
[1] = system: QS-controlled luxCDABE operon; format: cell-based
[2] = system: T1, WT CqsS; format: biochemical; details: for % Total Phosphorylation: CqsS WT
T1 construct: made in house; host or cells: E. coli C43 (DE3), pET21b; used as inverted membrane vesicles

[3] = system: T1, WT CqsS; format: cell-based; details: Treatment 1uM
[4] = system: CqsS F162A; experiment: CqsS-dependent repression of qrr4-gfp, CqsS F162A (Fig 7C); format: cell-based, Vibrio cholerae; details: Treatment 1uM; CqsS mutant F162A
[5] = system: QS-controlled luxCDABE operon; format: cell-based; details: for RLU: PluxPQ-CqsS::3XFLAG LuxS-CqsA-
[6] = system: CqsS C170Y; details: cited from earlier work
[7] = ΔcqsA strain carrying luciferase

CCCCCCCCCC(=O)[C@@H](O)CC [CAI-1, (S)-3-hydroxytridecan-4-one]
Light production ([1]; 5nM CAI-1, OD600 0.005): 81418.9 RLU and 88175.7 RLU
Light production ([1]; 5nM CAI-1, OD600 0.0328): 3079268 RLU and 3871951 RLU
Light production ([1]; 5nM CAI-1, OD600 0.1753): 587564 RLU
Light production ([1]; 5nM CAI-1, OD600 0.3442): 310866 RLU and 554910 RLU
Light production ([1]; 5nM CAI-1, OD600 0.801): 179775 RLU and 309613 RLU
Light production ([1]; 5nM CAI-1, OD600 1.26): 81746 RLU and 99206.4 RLU
Light production ([1]; 5nM CAI-1, OD600 1.834): 45747000 RLU and 48964010 RLU
Light production ([1]; 5nM CAI-1, OD600 2.816): 21306820 RLU and 22194600 RLU
Light production ([1]; 5nM CAI-1, OD600 3.828): 7523511 RLU and 7967607 RLU
Light production ([1]; 10nM CAI-1, OD600 0.005): 81418.9 RLU and 88175.7 RLU
Light production ([1]; 10nM CAI-1, OD600 0.0309): 3915858 RLU and 6084143 RLU
Light production ([1]; 10nM CAI-1, OD600 0.3229): 637968 RLU and 656550 RLU
Light production ([1]; 10nM CAI-1, OD600 1.126): 88099.5 RLU and 91474.2 RLU
Light production ([1]; 10nM CAI-1, OD600 1.799): 63924400 RLU and 62812670 RLU
Light production ([1]; 10nM CAI-1, OD600 3.014): 33012610 RLU and 33842070 RLU
Light production ([1]; 10nM CAI-1, OD600 3.657): 10363690 RLU and 11730930 RLU
Light production ([1]; 50nM CAI-1, OD600 0.005): 88175.7 RLU and 81418.9 RLU
Light production ([1]; 50nM CAI-1, OD600 0.17): 729000 RLU and 688000 RLU
Light production ([1]; 50nM CAI-1, OD600 1.08): 697000 RLU
Light production ([1]; 50nM CAI-1, OD600 1.1): 90900 RLU and 113000 RLU
Light production ([1]; 50nM CAI-1, OD600 1.96): 526000000 RLU and 531000000 RLU
Light production ([1]; 50nM CAI-1, OD600 2.94): 619000000 RLU and 599000000 RLU
Light production ([1]; 50nM CAI-1, OD600 3.55): 346000000 RLU and 321000000 RLU
Light production ([1]; 100nM CAI-1, OD600 0.005): 81418.9 RLU and 88175.7 RLU
Light production ([1]; 100nM CAI-1, OD600 0.0305): 3670000 RLU and 6790000 RLU
Light production ([1]; 100nM CAI-1, OD600 0.1651): 654000 RLU and 1050000 RLU
Light production ([1]; 100nM CAI-1, OD600 0.3167): 332000 RLU and 388000 RLU
Light production ([1]; 100nM CAI-1, OD600 0.721): 196000 RLU and 241000 RLU
Light production ([1]; 100nM CAI-1, OD600 1.101): 2280000 RLU
Light production ([1]; 100nM CAI-1, OD600 2.679): 3170000000 RLU
Light production ([1]; 100nM CAI-1, OD600 3.677): 1830000000 RLU and 1870000000 RLU
Light production ([1]; 200nM CAI-1, OD600 0.005): 81418.9 RLU and 88175.7 RLU
Light production ([1]; 200nM CAI-1, OD600 0.0621): 2130000 RLU and 2790000 RLU
Light production ([1]; 200nM CAI-1, OD600 0.3026): 568000 RLU and 806000 RLU
Light production ([1]; 200nM CAI-1, OD600 0.5074): 946000 RLU and 1180000 RLU
Light production ([1]; 200nM CAI-1, OD600 0.5715): 2260000 RLU and 2870000 RLU
Light production ([1]; 200nM CAI-1, OD600 1.099): 27300000 RLU and 26900000 RLU
Light production ([1]; 200nM CAI-1, OD600 1.844): 5910000000 RLU
Light production ([1]; 200nM CAI-1, OD600 2.341): 8370000000 RLU and 9230000000 RLU
Light production ([1]; 200nM CAI-1, OD600 3.352): 11800000000 RLU and 12600000000 RLU
Light production ([1]; 200nM CAI-1, OD600 4.26): 7350000000 RLU and 7860000000 RLU
Light production ([1]; 400nM CAI-1, OD600 0.005): 81418.9 RLU and 88175.7 RLU
Light production ([1]; 400nM CAI-1, OD600 0.0614): 1510000 RLU and 1840000 RLU
Light production ([1]; 400nM CAI-1, OD600 0.3014): 358000 RLU and 392000 RLU
Light production ([1]; 400nM CAI-1, OD600 0.5621): 3290000 RLU and 3630000 RLU
Light production ([1]; 400nM CAI-1, OD600 1.037): 74300000 RLU and 84000000 RLU
Light production ([1]; 400nM CAI-1, OD600 1.532): 10100000000 RLU
Light production ([1]; 400nM CAI-1, OD600 2): 31900000000 RLU and 31800000000 RLU
Light production ([1]; 400nM CAI-1, OD600 3.04): 22900000000 RLU and 24900000000 RLU
Light production ([1]; 400nM CAI-1, OD600 3.35): 22600000000 RLU and 24400000000 RLU
CAI-1 concentration at which induction of bioluminescence occurred [1, 7]: 50 nM
CAI-1 concentrations that failed to activate a QS response [1, 7]: below 50 nM
CAI-1 concentrations that fully induced QS [1, 7]: above 200 nM
% Total Phosphorylation ([2]; Agonist 0.01 uM): 102.493% and 101.697% and 101.306%
% Total Phosphorylation ([2]; Agonist 0.1 uM): 89.3767% and 102.409% and 93.98%
% Total Phosphorylation ([2]; Agonist 0.5 uM): 97.7615% and 100.304% and 88.309% and 81.2302% and 104.248% and 84.8997% and 78.17% and 83.6501%
% Total Phosphorylation ([2]; Agonist 1 uM): 89.5575% and 94.3418% and 94.4031% and 65.5157% and 64.6244%
% Total Phosphorylation ([2]; Agonist 2.5 uM): 63.4493% and 51.2966% and 78.14% and 56.8331% and 55.38%
% Total Phosphorylation ([2]; Agonist 5 uM): 72.2411% and 75.0851% and 56.1286% and 43.0708% and 37.87% and 49.5683%
% Total Phosphorylation ([2]; Agonist 75 uM): 26.5628% and 23.1908% and 29.77% and 22.6184%
% Total Phosphorylation ([2]; Agonist 500 uM): 13.8148% and 19.6183% and 26.8103% and 17.4064%
% Total Phosphorylation ([2]; Agonist 1000 uM): 22.144% and 17.5686%
inhibition of WT CqsS autophosphorylation ([2]; saturating concentration (Fig 7B)): 80%
Qrr4-GFP/OD600 [3]: 1736969 and 1605333 and 1622571
Qrr4-GFP/OD600 [4]: 18299880 and 17516110 and 17110990
RLU ([5]; OD600 0.0561): 7.33E+06 RLU
RLU ([5]; OD600 0.3257): 8.15E+05 RLU
RLU ([5]; OD600 1.037): 1.96E+05 RLU
RLU ([5]; OD600 1.243): 3.52E+06 RLU
RLU ([5]; OD600 1.958): 2.58E+09 RLU
RLU ([5]; OD600 2.673): 3.36E+09 RLU
QS response when cqsS is under the luxPQ promoter ([5]; S9B Fig): incapable of inducing the premature response
response of CqsS variant to CAI-1 [6]: do not respond
